From ChEMBL document CHEMBL5344474, “Molecular editing of NSC-666719 enabling discovery of benzodithiazinedioxide-guanidines as anticancer agents” (RSC Med Chem, 2024)

Assays:
MCF7 [1] = assay: Antiproliferative activity against human MCF7 cells incubated for 72 hrs by MTT assay; conditions: MCF7, 72 h
MDA-MB-231 = assay: Antiproliferative activity against human MDA-MB-231 cells incubated for 72 hrs by MTT assay; conditions: MDA-MB-231, 72 h
HCT-116 = assay: Antiproliferative activity against human HCT-116 cells incubated for 72 hrs by MTT assay; conditions: HCT-116, 72 h
SCC-9 = assay: Antiproliferative activity against human SCC-9 cells incubated for 72 hrs by MTT assay; conditions: SCC-9, 72 h
[2] = Cytotoxicity against HEK293 cells incubated for 72 hrs by MTT assay; conditions: human
[3] = Selectivity index, ratio of IC50 for HEK293 cells to IC50 for human MCF7 cells; conditions: HEK293 cells versus MCF7 cells
[4] = Selectivity index, ratio of IC50 for HEK293 cells to IC50 for human MDA-MB-231 cells; conditions: HEK293 cells versus MDA-MB-231 cells
[5] = Selectivity index, ratio of IC50 for HEK293 cells to IC50 for human HCT-116 cells; conditions: HEK293 cells versus HCT-116 cells
MCF7 [6] = assay: cells; conditions: Homo sapiens, MCF7, 48 h, read-out: Activity
Description: Induction of apoptosis in human MCF7 cells assessed as viable cells at 0.5 uM incubated for 48 hrs by Annexin-V/FITC staining based flow cytometry analysis (Rvb = 99.3 +/- 0.12 %)

MCF7 [7] = assay: cells; conditions: Homo sapiens, MCF7, 48 h, read-out: Activity; remark: listed apart in the source
Description: Induction of apoptosis in human MCF7 cells assessed as viable cells at 2 uM incubated for 48 hrs by Annexin-V/FITC staining based flow cytometry analysis (Rvb = 99.3 +/- 0.12 %)

MCF7 [8] = assay: cells; conditions: Homo sapiens, MCF7, 48 h, read-out: Activity; remark: listed apart in the source
Description: Induction of apoptosis in human MCF7 cells assessed as viable cells at 0.8 uM incubated for 48 hrs by Annexin-V/FITC staining based flow cytometry analysis (Rvb = 99.3 +/- 0.12 %)

Cc1cc2c(cc1Cl)SC(/N=C(/N)Nc1ccnc3cc(Cl)ccc13)=NS2(=O)=O
IC50 (MCF7 [1]): 800 nM
IC50 (MDA-MB-231): 2100 nM
IC50 (HCT-116): 2800 nM
IC50 (SCC-9): 1000 nM
IC50 at 72 h [2]: 65000 nM
selectivity ratio [3]: > 65
selectivity ratio [4]: > 65
selectivity ratio [5]: > 65
viability at 0.5 µM (MCF7 [6]): 64.9%
viability at 2 µM (MCF7 [7]): 14.8%
viability at 0.8 µM (MCF7 [8]): 27.4%
